Measurements reported in publication PMC9081605, “A High-Throughput Toxicity Screen of 42 Per- and Polyfluoroalkyl Substances (PFAS) and Functional Assessment of Migration and Gene Expression in Human Placental Trophoblast Cells” (Frontiers in Toxicology, 2022).

Tests used:
[1] = system: JEG-3 cells; experiment: CellTiter-Glo luminescent cell viability assay (HTTS); format: cell-based, human; conditions: for Viability ↓, lowest concentration at which the mean response value exceeded the mean control value ± 2*SD (rough binning): decrease; for cell viability relative to vehicle control (rough binning): after 24 h, in at least one concentration
In short: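 JEG-3 cells (2,500/well) adhered overnight, then exposed 24 h to PFAS (methanol stocks; vehicle 2.5% methanol, top concentration 500 µM). Viability read by CellTiter-Glo ATP luminescence in the same wells as mitochondrial membrane potential; wells with 0 h confluence <20% or >80% excluded.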

[2] = system: JEG-3 cells; experiment: Proliferation, change in confluence 0-24 h (IncuCyte Zoom, HTTS); format: cell-based, human; conditions: for cellular proliferation relative to vehicle control (rough binning): after 24 h, in at least one concentration; for Prolif ↓, lowest concentration at which the mean response value exceeded the mean control value ± 2*SD (rough binning): decrease
In short: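 Confluence measured by automated image masking at 0 h and 24 h after dosing; proliferation = 24 h minus baseline confluence. JEG-3 seeded at 2,500 cells/well, ~30–50% baseline confluence, exposed 24 h to PFAS up to 500 µM in medium with 2.5% methanol vehicle; 37°C, 5% CO2.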

[3] = Homo sapiens, JEG-3, 24 h, read-out: Viability EC50 ± SD, JEG-3 cells, 24 h exposure, four-parameter fit, estimates meeting inclusion criteria
[4] = Homo sapiens, JEG-3, 24 h, read-out: Proliferation EC50 ± SD, JEG-3 cells, 24 h exposure, four-parameter fit, estimates meeting inclusion criteria
[5] = JEG-3 cells, 24 h exposure, four-parameter fit, estimates meeting inclusion criteria, read-out: Viability EC50 ± SD
[6] = JEG-3 cells, 24 h exposure, four-parameter fit, estimates meeting inclusion criteria, read-out: Proliferation EC50 ± SD

| SMILES | EC50 [1, 3] [µM] | Viability ↑, lowest concentration at which the mean response value exceeded the mean control value ± 2*SD (rough binning) ([1]; JEG-3 cells, 24 h, increase) [µM] | minimal effective concentration ([2]; Homo sapiens, JEG-3, 24 h, read-out: Prolif ↓, lowest concentration at which the mean response value exceeded the mean control value ± 2*SD (rough binning)) [µM] | EC50 [2, 4] [µM] | cellular proliferation relative to vehicle control (rough binning) [2] | Viability ↓, lowest concentration at which the mean response value exceeded the mean control value ± 2*SD (rough binning) ([1]; JEG-3 cells, 24 h) [µM] | EC50 [1, 5] [µM] | cell viability relative to vehicle control (rough binning) [1] | Prolif ↓, lowest concentration at which the mean response value exceeded the mean control value ± 2*SD (rough binning) ([2]; JEG-3 cells, 24 h) [µM] | EC50 [2, 6] [µM] | EC50 ([1]; JEG-3 cells, 24 h exposure, four-parameter fit, estimates meeting inclusion criteria, listed as PFOS, read-out: Viability EC50 ± SD) [µM] | EC50 ([2]; JEG-3 cells, 24 h exposure, four-parameter fit, estimates meeting inclusion criteria, listed as PFOS, read-out: Proliferation EC50 ± SD) [µM] | Prolif ↑, lowest concentration at which the mean response value exceeded the mean control value ± 2*SD (rough binning) ([2]; JEG-3 cells, 24 h, increase) [µM] | EC50 ([1]; Homo sapiens, JEG-3, 24 h, read-out: viability EC50 ± SE, JEG-3 cells, 24 h) [µM] | EC50 ([1]; read-out: Viability EC50 ± SD, JEG-3 cells, 24 h exposure, four-parameter fit, estimates meeting inclusion criteria) [µM] | EC50 ([2]; Homo sapiens, JEG-3, 24 h, read-out: proliferation EC50 ± SE, JEG-3 cells, 24 h) [µM] |
| --- | --- | --- | --- | --- | --- | --- | --- | --- | --- | --- | --- | --- | --- | --- | --- | --- |
| O=C(O)C(F)(F)C(F)(F)C(F)(F)C(F)(F)C(F)(F)C(F)(F)C(F)(F)F [Perfluorooctanoic acid] | 358 ± 16.9 | 200 | 350 | 344 ± 12.2 | reduced cellular proliferation |  |  |  |  |  |  |  |  |  |  |  |
| O=C(O)C(F)(F)C(F)(F)C(F)(F)C(F)(F)C(F)(F)C(F)(F)C(F)(F)C(F)(F)F [Perfluorononanoic acid] |  |  |  |  | reduced cellular proliferation | 350 | 333 ± 10.3 | reduced cell viability | 300 | 326 ± 5.5 |  |  |  |  |  |  |
| O=S(=O)(O)C(F)(F)C(F)(F)C(F)(F)C(F)(F)C(F)(F)C(F)(F)C(F)(F)C(F)(F)F [Perfluorooctanesulfonic acid] |  |  |  |  | reduced cellular proliferation | 300 | 291 ± 9.1 | reduced cell viability | 250 | 294 ± 5.8 | 291 | 294 |  |  |  |  |
| N.O=C(O)C(F)(OC(F)(F)C(F)(F)C(F)(F)F)C(F)(F)F (stereo not shown) [Ammonium perfluoro-2-methyl-3-oxahexanoate] |  |  |  |  | increased cellular proliferation | 350 |  | reduced cell viability |  |  |  |  | 50 |  |  |  |
| NS(=O)(=O)C(F)(F)C(F)(F)C(F)(F)C(F)(F)C(F)(F)C(F)(F)C(F)(F)C(F)(F)F [Perfluorooctanesulfonamide] | 175 ± 4.9 |  |  | 160 ± 87.8 |  |  |  |  |  |  |  |  |  | 176 ± 5 | 176 ± 4.9 | 160 ± 90 |
